Columns and labels:
BHK-21 = assay: Cytotoxicity against hamster BHK-21 cells assessed as reduction in cell viability at 10 uM measured after 3 days; type: toxicity, cell-based, Mesocricetus auratus; conditions: bhk-21, 72 h, time 3 day
Human coronavirus OC43 = assay: Antiviral activity against HCoV-OC43 infected in hamster BHK-21 cells assessed as inhibition of viral infectivity per ml at 10 uM measured after 3 days; type: functional; conditions: time 3 day

| SMILES | Activity (BHK-21) | log(activity) (Human coronavirus OC43) |
| --- | --- | --- |
| O=C(c1ccccc1O)c1ccc(O)c(O)c1O | >= 85% | 1.95 |
| COc1ccc2c(=O)c3c(O)cc(O)cc3oc2c1 | >= 85% | 2.67 |
| O=c1c2ccccc2oc2cc(O)cc(O)c12 | >= 85% | 2.5 |
| O=c1c2c(O)cccc2oc2cc(O)cc(O)c12 | >= 85% | 2 |
| O=c1c2cc(O)c(O)cc2oc2cc(O)c([C@@H]3O[C@H](CO)[C@@H](O)[C@H](O)[C@H]3O)c(O)c12 [MANGIFERIN] | >= 85% | 3 |
| O=c1c2ccc(O)cc2oc2cccc(O)c12 | >= 85% | 2.2 |
| O=c1c2cc(F)ccc2oc2cc(O)cc(O)c12 | >= 85% | 2.38 |
| COc1ccc2oc3cc(O)cc(O)c3c(=O)c2c1 | >= 85% | 2.67 |
| Cc1ccc2oc3cc(O)cc(O)c3c(=O)c2c1 | >= 85% | 2.79 |
| O=c1c2ccccc2oc2c(O)c(O)ccc12 [3,4-DIHYDROXYXANTHONE] | >= 85% | 1.95 |
| O=C(c1ccccc1O)c1ccc(O)cc1O | >= 85% | 2.45 |
| Cc1ccc2c(=O)c3c(O)cc(O)cc3oc2c1 | >= 85% | 2.42 |
| O=c1c2ccccc2oc2ccccc12 [XANTHONE] | >= 85% | 2.04 |
